The record followed here is patent publication US11166959B2, “Isofuranone compounds useful as HPK1 inhibitors” (BRISTOL-MYERS SQUIBB COMPANY, priority 2017, dated 2021).

One assay addresses T1, IRAK4 (Homo sapiens, UniProt Q9NWZ3).
T1 construct: 1 nM IRAK4 (160-460); purchased SignalChem M24016
T1 sequence (Q9NWZ3 160-460): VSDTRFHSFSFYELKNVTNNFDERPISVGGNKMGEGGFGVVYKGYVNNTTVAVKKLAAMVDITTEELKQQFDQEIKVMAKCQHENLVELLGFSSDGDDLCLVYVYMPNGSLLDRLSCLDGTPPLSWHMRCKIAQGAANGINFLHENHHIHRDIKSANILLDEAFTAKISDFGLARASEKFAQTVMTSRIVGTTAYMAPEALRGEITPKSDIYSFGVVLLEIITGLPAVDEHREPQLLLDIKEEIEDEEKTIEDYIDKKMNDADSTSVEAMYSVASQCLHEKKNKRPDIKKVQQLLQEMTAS
Briefly: IRAK4 Inhibition Assay (kinase reaction, Caliper capillary electrophoresis). Particulars: 500 μM ATP, 11 concentrations. In kind it is biochemical. The protocol:
The reactions were incubated out for three hours and quenched with 1 mM EDTA solution. The reaction incubation time and enzyme concentration were optimized to obtain a maximum peptide substrate conversion of 20-30%. The reaction mixtures were analyzed by capillary electrophoresis on a Caliper LabChip EZ Reader to resolve phosphorylated and unphosphorylated peptide species and determine peptide substrate conversion. […] The compounds were dissolved in DMSO and evaluated at 11 concentrations to determine IC50 values.

The target of a further assay is T2, HPK1 (Homo sapiens, UniProt Q92918).
T2 construct: purchased SignalChem M23-11G
T2 sequence (Q92918 1-346 limits assumed): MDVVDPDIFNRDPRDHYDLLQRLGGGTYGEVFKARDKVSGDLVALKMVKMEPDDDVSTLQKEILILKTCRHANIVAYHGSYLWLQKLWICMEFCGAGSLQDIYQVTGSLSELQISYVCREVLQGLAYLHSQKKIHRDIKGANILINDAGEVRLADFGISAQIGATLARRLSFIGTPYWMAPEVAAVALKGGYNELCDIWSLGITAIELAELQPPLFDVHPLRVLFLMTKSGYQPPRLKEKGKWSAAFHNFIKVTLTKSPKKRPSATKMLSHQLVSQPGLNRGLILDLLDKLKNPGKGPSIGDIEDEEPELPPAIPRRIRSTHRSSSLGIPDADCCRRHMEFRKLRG
Put plainly: HPK1 Inhibition Assay (kinase reaction, Caliper capillary electrophoresis). The assay is classed as biochemical. The settings on record: for IC50: 0.625 nM HPK1, 22 μM ATP, 11 concentrations, read-out: HPK1 IC50; for IRAK4/HPK1 Ratio: ratio of the IRAK4 IC50 value to the HPK1 IC50 value. The protocol: The reactions were incubated out for three hours and quenched with 1 mM EDTA solution. The reaction incubation time and enzyme concentration were optimized to obtain a maximum peptide substrate conversion of 20-30%. The reaction mixtures were analyzed by capillary electrophoresis on a Caliper LabChip EZ Reader to resolve phosphorylated and unphosphorylated peptide species and determine peptide substrate conversion. […] The compounds were dissolved in DMSO and evaluated at 11 concentrations to determine the IC50 values.

Molecules are shown by their SMILES. Where only a bound is given, the exact number is not on record here.

Broadly, the IC50 is the concentration at which inhibition is half-maximal. With `CC1(C)OC(=O)c2ccc(Nc3ncc(-c4nc(C56CC(N)(C5)C6)no4)c(N[C@H](CO)c4ccccc4)n3)cc21` [Example 47, 5-{[5-(3-{3-aminobicyclo[1.1.1]pentan-1-yl}-1,2,4-oxadiazol-5-yl)-4-{[(1S)-2-hydroxy-1-phenylethyl]amino}pyrimidin-2-yl]amino}-3,3-dimethyl-1,3-dihydro-2-benzofuran-1-one], the IC50 on IRAK4 is 250 to 1000 nM; at HPK1, under 50 nM. On HPK1, the “IRAK4/HPK1 Ratio” value was “C (C=>50)”.

`CN(C)C12CC(c3noc(-c4cnc(Nc5ccc6c(c5)C(C)(C)OC6=O)nc4N[C@H](CO)c4ccccc4)n3)(C1)C2` [Example 48, 5-[(5-{3-[3-(dimethylamino)bicyclo[1.1.1]pentan-1-yl]-1,2,4-oxadiazol-5-yl}-4-{[(1S)-2-hydroxy-1-phenylethyl]amino}pyrimidin-2-yl)amino]-3,3-dimethyl-1,3-dihydro-2-benzofuran-1-one]: on IRAK4, the IC50 was in the range of 250 to 1000 nM. On HPK1, the IC50 is under 50 nM and the “IRAK4/HPK1 Ratio” value is reported as “C (C=>50)”.

On to `CC(=O)NC12CC(c3noc(-c4cnc(Nc5ccc6c(c5)C(C)(C)OC6=O)nc4N[C@H](CO)c4ccccc4)n3)(C1)C2` [Example 49, N-[3-(5-{2-[(3,3-dimethyl-1-oxo-1,3-dihydro-2-benzofuran-5-yl)amino]-4-{[(1S)-2-hydroxy-1-phenylethyl]amino}pyrimidin-5-yl}-1,2,4-oxadiazol-3-yl)bicyclo[1.1.1]penta-1-yl]acetamide], for which the IC50 was 250 to 1000 nM on IRAK4 and under 50 nM on HPK1. The “IRAK4/HPK1 Ratio” value on HPK1 was “C (C=>50)”.

`COC(=O)NC12CC(c3noc(-c4cnc(Nc5ccc6c(c5)C(C)(C)OC6=O)nc4N[C@H](CO)c4ccccc4)n3)(C1)C2` [Example 50, Methyl N-[3-(5-{2-[(3,3-dimethyl-1-oxo-1,3-dihydro-2-benzofuran-5-yl)amino]-4-{[(1S)-2-hydroxy-1-phenylethyl]amino}pyrimidin-5-yl}-1,2,4-oxadiazol-3-yl)bicyclo[1.1.1]pentan-1-yl]carbamate] displayed an IC50 at IRAK4 of 250 to 1000 nM. Besides, on HPK1, the IC50 is under 50 nM and the “IRAK4/HPK1 Ratio” value is listed as “C (C=>50)”.

In the case of `CC1(C)OC(=O)c2ccc(Nc3ncc(C(=O)NN)c(N[C@H](CO)c4ccccc4)n3)cc21` [Example 51, 2-[(3,3-dimethyl-1-oxo-1,3-dihydro-2-benzofuran-5-yl)amino]-4-{[(1S)-2-hydroxy-1-phenylethyl]amino}pyrimidine-5-carbohydrazide], the concentration for half-maximal inhibition (IC50) against IRAK4 lay within 250 to 1000 nM. Further, at HPK1, the IC50 was under 50 nM and the “IRAK4/HPK1 Ratio” value is listed as “C (C=>50)”.

`CC1(C)OC(=O)c2ccc(Nc3ncc(-c4n[nH]c(=O)o4)c(N[C@H](CO)c4ccccc4)n3)cc21` [Example 52, 5-{2-[(3,3-dimethyl-1-oxo-1,3-dihydro-2-benzofuran-5-yl)amino]-4-{[(1S)-2-hydroxy-1-phenylethyl]amino}pyrimidin-5-yl}-2,3-dihydro-1,3,4-oxadiazol-2-one]: the IC50 at IRAK4 was in the range of 250 to 1000 nM. In addition, on HPK1, the half-maximal inhibitory concentration (IC50) was under 50 nM and the “IRAK4/HPK1 Ratio” value is on record as “C (C=>50)”.

Take `CCn1nc(-c2cnc(Nc3ccc4c(c3)C(C)(C)OC4=O)nc2N[C@H](CO)c2ccccc2)oc1=O` [Example 53, 5-{2-[(3,3-dimethyl-1-oxo-1,3-dihydro-2-benzofuran-5-yl)amino]-4-{[(1S)-2-hydroxy-1-phenylethyl]amino}pyrimidin-5-yl}-3-ethyl-2,3-dihydro-1,3,4-oxadiazol-2-one]: the IC50 on IRAK4 was 250 to 1000 nM. Further, at HPK1, the IC50 was under 50 nM and the “IRAK4/HPK1 Ratio” value is listed as “C (C=>50)”.

For `CC1(C)OC(=O)c2ccc(Nc3ncc(C(=O)NNC(=O)c4cccnc4)c(N[C@H](CO)c4ccccc4)n3)cc21` [Example 56, N′-{2-[(3,3-dimethyl-1-oxo-1,3-dihydro-2-benzofuran-5-yl)amino]-4-{[(1S)-2-hydroxy-1-phenylethyl]amino}pyrimidine-5-carbonyl}pyridine-3-carbohydrazide], the IC50 against IRAK4 fell in the range of 250 to 1000 nM. Further, on HPK1, the IC50 is under 50 nM and the “IRAK4/HPK1 Ratio” value is “B (B=10 to 50)”.

With `CC1(C)OC(=O)c2ccc(Nc3ncc(-c4nnc(-c5cccnc5)o4)c(N[C@H](CO)c4ccccc4)n3)cc21` [Example 57, 5-[(4-{[(1S)-2-hydroxy-1-phenylethyl]amino}-5-[5-(pyridin-3-yl)-1,3,4-oxadiazol-2-yl]pyrimidin-2-yl)amino]-3,3-dimethyl-1,3-dihydro-2-benzofuran-1-one], on IRAK4, the IC50 was in the range of 250 to 1000 nM. For the same compound, on HPK1, the IC50 was under 50 nM and the “IRAK4/HPK1 Ratio” value was “C (C=>50)”.

`CC1(C)OC(=O)c2ccc(Nc3ncc(C(=O)NNC(=O)c4cnccn4)c(N[C@H](CO)c4ccccc4)n3)cc21` [Example 58, N′-{2-[(3,3-dimethyl-1-oxo-1,3-dihydro-2-benzofuran-5-yl)amino]-4-{[(1S)-2-hydroxy-1-phenylethyl]amino}pyrimidine-5-carbonyl} pyrazine-2-carbohydrazide] gave an IC50 against IRAK4 of 250 to 1000 nM. In addition, on HPK1, the IC50 is under 50 nM and the “IRAK4/HPK1 Ratio” value is “B (B=10 to 50)”.

`CC/N=C(\NCCCN(C)C)NNC(=O)c1cnc(Nc2ccc3c(c2)C(C)(C)OC3=O)nc1N[C@H](CO)c1ccccc1` [Example 59, 1-({2-[(3,3-dimethyl-1-oxo-1,3-dihydro-2-benzofuran-5-yl)amino]-4-{[(1S)-2-hydroxy-1-phenylethyl]amino}pyrimidin-5-yl}formohydrazido)-N-[3-(dimethylamino)propyl]-N′-ethylmethanimidamide] gave an IC50 against IRAK4 of 250 to 1000 nM. In addition, at HPK1, the IC50 was under 50 nM and the “IRAK4/HPK1 Ratio” value was “B (B=10 to 50)”.

At IRAK4, `CC(C)(O)C(=O)NNC(=O)c1cnc(Nc2ccc3c(c2)C(C)(C)OC3=O)nc1N[C@H](CO)c1ccccc1` [Example 60, 2-[(3,3-dimethyl-1-oxo-1,3-dihydro-2-benzofuran-5-yl)amino]-4-{[(1S)-2-hydroxy-1-phenylethyl]amino}-N′-(2-hydroxy-2-methylpropanoyl)pyrimidine-5-carbohydrazide] came in with an IC50 of 250 to 1000 nM. In addition, at HPK1, the half-maximal inhibitory concentration (IC50) was in the range of 50 to 250 nM and the “IRAK4/HPK1 Ratio” value is recorded as “B (B=10 to 50)”.

Take `CC(C)(O)c1nnc(-c2cnc(Nc3ccc4c(c3)C(C)(C)OC4=O)nc2N[C@H](CO)c2ccccc2)o1` [Example 61, 5-[(4-{[(1S)-2-hydroxy-1-phenylethyl]amino}-5-[5-(2-hydroxypropan-2-yl)-1,3,4-oxadiazol-2-yl]pyrimidin-2-yl)amino]-3,3-dimethyl-1,3-dihydro-2-benzofuran-1-one]: the IC50 is 50 to 250 nM at IRAK4 and under 50 nM on HPK1. Moreover, at HPK1, the “IRAK4/HPK1 Ratio” value is “C (C=>50)”.

The compound `CC1(C)OC(=O)c2ccc(Nc3ncc(C(=O)NNC(=O)C4CC4)c(N[C@H](CO)c4ccccc4)n3)cc21` [Example 62, (S)—N′-(cyclopropanecarbonyl)-2-((3,3-dimethyl-1-oxo-1,3-dihydroisobenzofuran-5-yl)amino)-4-((2-hydroxy-1-phenylethyl)amino)pyrimidine-5-carbohydrazide] displayed an IC50 against IRAK4 of 250 to 1000 nM. At HPK1, the IC50 was under 50 nM and the “IRAK4/HPK1 Ratio” value is “C (C=>50)”.

`CC1(C)OC(=O)c2ccc(Nc3ncc(C(=O)NNC(=O)C(C)(O)C(F)(F)F)c(N[C@H](CO)c4ccccc4)n3)cc21` (stereo partly drawn) [Example 64, 2-[(3,3-dimethyl-1-oxo-1,3-dihydro-2-benzofuran-5-yl)amino]-4-{[(1S)-2-hydroxy-1-phenylethyl]amino}-N′-(3,3,3-trifluoro-2-hydroxy-2-methylpropanoyl)pyrimidine-5-carbohydrazide]: on IRAK4, the IC50 fell in the range of 250 to 1000 nM. Further, on HPK1, the IC50 lay within 50 to 250 nM and the “IRAK4/HPK1 Ratio” value was “B (B=10 to 50)”.

`CC1(C)OC(=O)c2ccc(Nc3ncc(-c4nnc(C(C)(O)C(F)(F)F)o4)c(N[C@H](CO)c4ccccc4)n3)cc21` (stereo partly drawn) [Example 65, 5-[(4-{[(1S)-2-hydroxy-1-phenylethyl]amino}-5-[5-(1,1,1-trifluoro-2-hydroxypropan-2-yl)-1,3,4-oxadiazol-2-yl]pyrimidin-2-yl)amino]-3,3-dimethyl-1,3-dihydro-2-benzofuran-1-one]: the IC50 on IRAK4 lay within 250 to 1000 nM. Moreover, on HPK1, the IC50 was under 50 nM and the “IRAK4/HPK1 Ratio” value is “B (B=10 to 50)”.
